Patent publication US20250268903A1, “RXFP1 AGONISTS” (BRISTOL-MYERS SQUIBB COMPANY, priority 2021, published 2025)
pEC50: −log10 of the molar value. One block for each molecule: values may come before it.

Molecular target: T1, human RXFP1 (Homo sapiens, UniProt Q9HBX9)
T1 construct: expressed in transfected cells
T1 sequence (Q9HBX9 1-757): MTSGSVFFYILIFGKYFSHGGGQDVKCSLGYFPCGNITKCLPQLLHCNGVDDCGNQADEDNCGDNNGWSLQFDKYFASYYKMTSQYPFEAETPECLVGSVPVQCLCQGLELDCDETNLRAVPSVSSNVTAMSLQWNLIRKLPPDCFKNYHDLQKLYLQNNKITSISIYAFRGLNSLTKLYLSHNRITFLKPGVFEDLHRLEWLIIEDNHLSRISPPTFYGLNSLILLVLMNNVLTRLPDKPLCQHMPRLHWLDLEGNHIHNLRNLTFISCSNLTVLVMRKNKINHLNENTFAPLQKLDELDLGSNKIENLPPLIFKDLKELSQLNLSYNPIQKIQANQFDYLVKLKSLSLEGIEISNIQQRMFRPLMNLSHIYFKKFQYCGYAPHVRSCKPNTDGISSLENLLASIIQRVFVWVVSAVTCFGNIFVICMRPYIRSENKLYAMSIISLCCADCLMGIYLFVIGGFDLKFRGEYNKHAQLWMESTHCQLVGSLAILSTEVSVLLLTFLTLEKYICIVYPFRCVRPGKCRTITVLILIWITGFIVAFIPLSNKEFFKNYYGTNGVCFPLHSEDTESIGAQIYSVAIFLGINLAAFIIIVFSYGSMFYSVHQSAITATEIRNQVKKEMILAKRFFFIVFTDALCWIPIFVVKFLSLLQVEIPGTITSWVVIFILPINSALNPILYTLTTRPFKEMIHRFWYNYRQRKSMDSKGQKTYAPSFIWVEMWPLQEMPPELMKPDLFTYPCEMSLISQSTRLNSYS
Test: hRXFP1 HEK293 cAMP assay (HTRF)
Assay type: cell-based
Conditions: HEK293 cells stably expressing human RXFP1, 30 min at room temperature
Procedure, shortened: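 HEK293 cells stably expressing human RXFP1 (1500 cells/well) in HBSS/20 mM HEPES/0.05% BSA/0.5 mM IBMX. Compounds were tested at 0.010 nM–50 μM final (2% DMSO) for 30 min at room temperature. cAMP was measured by HTRF and values derived by 4-parameter logistic fit.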

SMILES: COc1ccc(CCC(=O)NCCO)cc1C(=O)N[C@@H]1C2CCC(/C2=C/C(F)(F)F)[C@@H]1C(=O)Nc1ccc(F)c(C(F)(F)F)c1 (stereo partly drawn) [Example 137, (2S,3R,7Z)-N-[4-fluoro-3-(trifluoromethyl)phe-nyl]-3-(5-{2-[(2-hydroxyethyl)carba-moyl]ethyl}-2-methoxybenzamido)-7-(2,2,2-trifluoroethylidene)bi-cyclo[2.2.1]heptane-2-carboxamide]
pEC50: 6.40

SMILES: COc1ccc(C(C)(C)CCO)cc1C(=O)N[C@H]1[C@@H](C(=O)Nc2ccc(F)c(C(F)(F)F)c2)[C@H]2CC[C@@H]1/C2=C\C(F)(F)F [Example 272, (1R,2S,3R,4R,7Z)-N-[4-fluoro-3-(trifluoromethyl)phenyl]-3-[5-(4-hydroxy-2-methylbutan-2-yl)-2-methoxybenzamido]-7-(2,2,2-trifluoroethylidene) bicyclo[2.2.1]heptane-2-carboxamide]
pEC50: 6.37

SMILES: COc1ccc(C(=O)N2CCC(S(C)(=O)=O)C2)cc1C(=O)N[C@H]1[C@@H](C(=O)Nc2ccc(F)c(C(F)(F)F)c2)[C@H]2CC[C@@H]1/C2=C\C1CC1 (stereo partly drawn) [Example 252, (1R,2S,3R,4R,7Z)-7-(cyclopropyl-methylidene)-N-[4-fluoro-(trifluoromethyl)phenyl]-3-[5-(3-methanesulfonyl-pyrrolidine-1-carbonyl)-2-methoxybenzamido] bicyclo[2.2.1] heptane-2-carboxamide]
pEC50: 8.38

SMILES: COc1ccc(CCCO)cc1C(=O)N[C@H]1[C@@H](C(=O)NCC(C)(C)C)[C@H]2CC[C@@H]1/C2=C\C1CC1 [Example 270, (1R,2S,3R,4R,7Z)-7-(cyclopropylmethyl-idene)-N-(2,2-dimethylpropyl)-3-[5-(3-hydroxypropyl)-2-methoxybenzamido] bicyclo[2.2.1]heptane-2-carboxamide]
pEC50: 6.16

SMILES: COc1ccc(C(=O)N2CCC(S(C)(=O)=O)CC2)cc1C(=O)N[C@H]1[C@@H](C(=O)Nc2ccc(F)c(C(F)(F)F)c2)[C@H]2CC[C@@H]1/C2=C\C1CC1 [Example 247, (1R,2S,3R,4R,7Z)-7-(cyclopropylmethyl-idene)-N-[4-fluoro-3-(trifluoromethyl)phenyl]-3-[5-(4-methanesulfonyl-piperidine-1-carbonyl)-2-methoxybenzamido] bicyclo[2.2.1] heptane-2-carboxamide]
pEC50: 7.57

SMILES: COc1ccc(C(=O)N2CCS(=O)(=O)CC2)cc1C(=O)N[C@H]1[C@@H](C(=O)Nc2ccc(F)c(C(F)(F)F)c2)[C@H]2CC[C@@H]1/C2=C\C1CC1 [Example 242, (1R,2S,3R,4R,7Z)-7-(cyclopropyl-methylidene)-3-[5-(1,1-dioxo-1λ.^6-thiomorpholine-4-carbonyl)-2-methoxybenzamido]-N-[4-fluoro-3-(trifluoromethyl)phenyl]bicyclo [2.2.1] heptane-2-carboxamide]
pEC50: 6.58

SMILES: COc1ccc(C[C@H]2C[C@H](O)C2)cc1C(=O)N[C@H]1[C@@H](C(=O)Nc2ccc(F)c(C(F)(F)F)c2)[C@H]2CC[C@@H]1/C2=C\C(F)(F)F [Example 278, (1R,2S,3R,4R,7Z)-N-[4-fluoro-3-(trifluoromethyl)phenyl]-3-(2-methoxy-5-{[(1r,3s)-3-hydroxycyclobutyl]methyl}benzamido)-7-(2,2,2-trifluoroethylidene) bicyclo[2.2.1]heptane-2-carboxamide]
pEC50: 7.49

SMILES: COc1ccc(CCC(C)(C)O)cc1C(=O)NC1C2CCC(/C2=C/C2CCCOC2)[C@@H]1C(=O)Nc1ccc(F)c(C(F)(F)F)c1 (single isomer, unassigned) [Example 173, (7Z)-N-[4-fluoro-3-(trifluoromethyl)phe-nyl]-3-[5-(3-hydroxy-3-methylbutyl)-2-methoxybenzamido]-7-[(oxan-3-yl)methylidene]bicy-clo[2.2.1]heptane-2-carboxamide]
pEC50: 6.73

SMILES: COc1ccc(/C=C/C(=O)N2CC[C@H](O)C2)cc1C(=O)N[C@@H]1C2CCC(/C2=C/C(F)(F)F)[C@@H]1C(=O)Nc1ccc(F)c(C(F)(F)F)c1 (stereo partly drawn) [Example 130, (2S,3R,7Z)-N-[4-fluoro-3-(trifluoromethyl)phe-nyl]-3-{5-[(1E)-3-[(3S)-3-hydroxypyrrolidin-1-yl]-3-oxoprop-1-en-1-yl]-2-methoxybenzamido}-7-(2,2,2-trifluoroethylidene)bi-cyclo[2.2.1]heptane-2-carboxamide]
pEC50: 6.94

SMILES: COc1ccc(C#CCO)cc1C(=O)N[C@@H]1C2CCC(/C2=C/C(F)(F)F)[C@@H]1C(=O)Nc1ccc(F)c(C(F)(F)F)c1 (stereo partly shown) [Example 68]
pEC50: 6.84

SMILES: COc1cc2c(cc1C(=O)N[C@H]1[C@@H](C(=O)Nc3ccc(F)c(C(F)(F)F)c3)[C@H]3CC[C@@H]1/C3=C\C(F)(F)F)CCC2 [Example 273, [(1R,2R,3S,4R,7Z)-3-{[4-fluoro~3-(trifluoromethyl)phenyl]carbamoyl}-7-(2,2,2-trifluoroethylidene)bicyclo[2.2.1]heptan-2-yl]-6-methoxy-2,3-dihydro-IH-indene-5-carboxamide]
pEC50: 5.46

SMILES: COc1ccc(S(=O)(=O)N2CCC(CCO)CC2)cc1C(=O)N[C@H]1[C@@H](C(=O)Nc2ccc(F)c(C(F)(F)F)c2)[C@H]2CC[C@@H]1/C2=C\C(F)(F)F [Example 219, (1R,2S,3R,4R,7Z)-N-[4-fluoro-3-(trifluoromethyl)phenyl]-3-(5-{[4-(2-hydroxyethyl)piperidin-1-yl]sulfonyl}-2-methoxybenzamido)-7-(2,2,2-trifluoroethylidene) bicyclo[2.2.1]heptane-2-carboxamide]
pEC50: 6.50

SMILES: COc1ccc(COCC2CC3(C2)OCCO3)cc1C(=O)N[C@H]1[C@@H](C(=O)Nc2ccc(F)c(C(F)(F)F)c2)[C@H]2CC[C@@H]1/C2=C\C1CC1 [Example 286]
pEC50: 6.92

Next, values leading:

pEC50: 7.77
SMILES: COc1ccc(/C=C/C(=O)N2CC3(CC(O)C3)C2)cc1C(=O)N[C@H]1[C@@H](C(=O)Nc2ccc(F)c(C(F)(F)F)c2)[C@H]2CC[C@@H]1/C2=C\C1CC1 [Example 309, (1R,2S,3R,4R,7Z)-7-(cyclopropylmethylidene)-N-[4-fluoro-3-(trifluoromethyl)phenyl]-3-{5-[(1E)-3-{6-hydroxy-2-azaspiro[3.3]heptan-2-yl}-3-oxoprop-1-en-1-yl]-2-methoxybenzamido} bicyclo[2.2.1]heptane-2-carboxamide]

pEC50: 7.17
SMILES: COc1ccc(COC[C@@H]2C[C@@H]2CO)cc1C(=O)N[C@H]1[C@@H](C(=O)Nc2ccc(F)c(C(F)(F)F)c2)[C@H]2CC[C@@H]1/C2=C\C1CC1 [Example 293, (1R,2S,3R,4R,7Z)-7-(cyclopropyl-methylidene)-N-[4-fluoro-3-(trifluoromethyl)phonyl]-3-[5-({[(1R,2S)-2-(hydroxymethyl)cyclopropyl]methoxy}methyl)-2-methoxybenzamido] bicyclo[2.2.1]heptane-2-carboxamide]

pEC50: 8.08
SMILES: COc1ccc(COC2C[C@@H](O)[C@@H](O)C2)cc1C(=O)N[C@H]1[C@@H](C(=O)Nc2ccc(F)c(C(F)(F)F)c2)[C@H]2CC[C@@H]1/C2=C\C1CC1 (stereo partly drawn) [Example 297, (1R,2S,3R,4R,7Z)-7-(cyclopropylmethylidene)-3-[5-({[(3R,4S)-3,4-dihydroxycyclopentyl]oxy}methyl)-2-methoxybenzamido]-N-[4-fluoro-3-(trifluoromethyl)phenyl]bicyclo[2.2.1]heptane-2-carboxamide]

pEC50: 5.70
SMILES: COc1ccc(C)cc1C(=O)N[C@@H]1C2CCC(C2=C(C)C)[C@@H]1C(=O)Nc1ccc(F)c(C(F)(F)F)c1 (stereo partly drawn) [Example 360, (2S,3R)-N-[4-fluoro-3-(trifluoromethyl)phenyl]-3-(2-methoxy-5-methylbenzamido)-7-(propan-2-ylidene)bicyclo[2.2.1] heptane-2-carboxamide]

pEC50: 7.01
SMILES: COc1ccc(/C=C/C(=O)N2CCC(C#N)CC2)cc1C(=O)N[C@H]1[C@@H](C(=O)Nc2ccc(F)c(C(F)(F)F)c2)[C@H]2CC[C@@H]1/C2=C\C1CC1 [Example 316, (1R,2S,3R,4R,7Z)-3-{5-[(1E)-3-(4-cyanopiperidin-1-yl)-3-oxoprop-1-en-1-yl]-2-methoxybenzamido}-7-(cyclopropylmethylidene)-N-[4-fluoro-3-(trifluoromethyl)phenyl]bicyclo[2.2.1] heptane-2-carboxamide]

pEC50: 7.84
SMILES: COc1ccc(COC2CCC(O)CC2)cc1C(=O)N[C@H]1[C@@H](C(=O)Nc2ccc(F)c(C(F)(F)F)c2)[C@H]2CC[C@@H]1/C2=C\C1CC1 (stereo partly drawn) [Example 289, (1R,2S,3R,4R,7Z)-7-(cyclopropyl-methylidene)-N-[4-fluoro-3-(trifluoromethyl)phenyl]-3-(5-{[(4-hydroxycyclohexyl)oxy]methyl}-2-methoxybenzamido) bicyclo[2.2.1]heptane-2-carboxamide]
